Laboratory results taken from patent publication US20230287217A1, “Zwitterionic Cell-Permeant and Water-Soluble Rhodamine Dyes for Quantitative Imaging Applications” (OREGON HEALTH & SCIENCE UNIVERSITY, priority 2020, published 2023).

Assay: UV-Vis absorption and fluorescence spectroscopy (spectral properties in aqueous media / PBS buffer)
Format: physicochemical
Design: Brightness: unit not given here
Conditions: aqueous media; for FWHMabs (nm): absorption band width; for λabs (nm): absorption maximum; for FWHem (nm): emission band width; for λem (nm): emission maximum; for ε (M^-1 cm-1): extinction coefficient from Beer's Law plots; for ϕ: relative quantum yield, TMR and SiTMR as reference
Method: UV-Vis and fluorescence spectra were collected on a SpectraMax M5 spectrometer with a Microplate reader (Molecular Devices, Sunnyvale, CA). All absorbance spectra were reference corrected. Extinction coefficient was calculated from Beer’s Law plots of absorbance versus concentration. Relative quantum yields are reported using TMR and SiTMR as reference.

Compound	Brightness	Stokes Shift (nm)	FWHMabs (nm)	λabs (nm)	FWHem (nm)	λem (nm)	ε (M^-1 cm-1)	ϕ
Cc1cc(C(=O)NCc2ccc(COc3nc(N)nc4[nH]cnc34)cc2)ccc1-c1c2cc/c(=[N+](/C)CCCS(=O)(=O)[O-])cc-2oc2cc(N(C)C)ccc12 [OF550SNAP, (E)((9-(4-((4-(((2-amino-9H-purin-6-yl)oxy)methyl)benzyl)carbamoyl)-2-methylphenyl)-6-(dimethylamino)-3H-xanthenylidene)(methyl)ammonio)propane-1-sulfonate]	21	24 nm	38 nm	556 nm	43 nm	580 nm	59,500 M^-1 cm-1	0.36
CN(C)c1ccc2c(-c3ccccc3C(=O)[O-])c3ccc(=[N+](C)C)cc-3oc2c1 [TMR]	33	25 nm	38 nm	549 nm	42 nm	574 nm	60,900 M^-1 cm-1	0.54
Cc1cc(C(=O)[O-])ccc1C1=C2C=C/C(=[N+](/C)CCCS(=O)(=O)O)C=C2[Si](C)(C)c2cc(N(C)C)ccc21 [OF650COOH, (E)-3-((10-(4-carboxy-2-methylphenyl)-7-(dimethylamino)-5,5-dimethyldibenzo[b,e]silin-3(5H)-ylidene)(methyl)ammonio)propane-1-sulfonate]	82	22 nm	34 nm	650 nm	42 nm	672 nm	200,600 M^-1 cm-1	0.41
C#Cc1cccc(Nc2ncnc3ccc(NC(=O)CCNC(=O)c4ccc(-c5c6cc/c(=[N+](/C)CCCS(=O)(=O)[O-])cc-6oc6cc(N(C)C)ccc56)c(C)c4)cc23)c1 [OF550Erl(T), (E)((6-(dimethylamino)-9-(4-((3-((4-((3-ethynylphenyl)amino)quinazolin-6-yl)amino)oxopropyl)carbamoyl)-2-methylphenyl)-3H-xanthenylidene)(methyl)ammonio)propane-1-sulfonate]	7	17 nm	80 nm	566 nm	47 nm	583 nm	24,500 M^-1 cm-1	0.28
C#Cc1cccc(Nc2ncnc3ccc(NC(=O)CCNC(=O)c4ccc(C5=C6C=C/C(=[N+](/C)CCCS(=O)(=O)[O-])C=C6[Si](C)(C)c6cc(N(C)C)ccc65)c(C)c4)cc23)c1 [OF650Erl(T)]	7	17 nm	38 nm	656 nm	41 nm	673 nm	43,400 M^-1 cm-1	0.16
Cc1cc(C(=O)NCCOCCOCCCCCCCl)ccc1-c1c2cc/c(=[N+](/C)CCCS(=O)(=O)[O-])cc-2oc2cc(N(C)C)ccc12 [OF550HALO, (E)((9-(4-((2-(2-((6-chlorohexyl)oxy)ethoxy)ethyl)carbamoyl)-2-methylphenyl)-6-(dimethylamino)-3H-xanthenylidene)(methyl)ammonio)propane-1-sulfonate]	53	25 nm	34 nm	556 nm	42 nm	581 nm	97,200 M^-1 cm-1	0.55
